# Laboratory results from patent publication US9994604B2, “Pyrazolotriazolyl nucleoside analogues and oligonucleotides comprising them” (Bio-Lab Ltd., priority 2012, dated 2018).
# [APT] = modified deoxyadenosine dA^PT as named in the publication
# What was measured:
# HBV = conditions: cited from earlier work
# HIV = conditions: cited from earlier work
# human platelet = conditions: cited from earlier work
# mouse leukemia cells = conditions: cited from earlier work
# [1] = test system: 24-mer single-stranded target DNA sequence of SEQ ID NO: 4 (X=T); assay: thermal denaturation (melting) studies of DNA duplexes followed by absorption spectroscopy; type: binding; conditions: duplex with SEQ ID NO: 4 (X=T); 1 μM each strand, 10 mM sodium phosphate pH 7, 150 mM NaCl, 1 mM EDTA; 260 nm
# Experimental: Oligonucleotide concentrations were 1 μM (each strand) in a 10 mM sodium phosphate, pH 7, buffer containing 150 mM NaCl and 1 mM EDTA. Temperature was increased from 10° C. to 80° C. over 140 min. Melting curves were recorded at X, =260 nm.
# The influence of dA replacement (one or two) by the pyrazolo[1,5-a]-1,3,5-triazine derivative (dA^PT) on duplex stability was investigated by thermal denaturation studies, followed by absorption spectroscopy, using DNA duplexes obtained by mixing the modified oligonucleotides of SEQ ID NOs. 1 and 2 with the 24-mer single-stranded target DNA sequence of SEQ ID NO: 4 (X=T). The natural deoxyadenosine was also incorporated in the same positions (SEQ ID NO: 5) for comparison (duplex obtained by hybridization of the oligonucleotides of SEQ ID NOs: 4+5).
# [2] = test system: oligonucleotide of SEQ ID NO: 4 (X=T); assay: CD spectra of DNA duplexes; type: physicochemical; conditions: 4 μM each strand, 10 mM sodium phosphate pH 7, 150 mM NaCl, 1 mM EDTA, 10° C., 220-300 nm; compared with unmodified duplex 4+5
# Description: CD spectra of the DNA duplexes obtained from the hybridization of the oligonucleotides of SEQ ID NOs: 4+1 and 4+2, containing one or two dA^PT, respectively, were compared to that of the parent unmodified duplex obtained by hybridization of the oligonucleotides of SEQ ID NOs: 4+5.
# [3] = acidic hydrolysis (stability of the glycosidic bond); type: physicochemical; conditions: 80% acetic acid at 65° C. for 45 hr followed by concentrated ammonium hydroxide
# Description: In order to study the stability of the glycosidic bond of the dA^PT described above in acidic conditions, compared with that of dA, two oligonucleotides containing a single incorporation of either dA^PT (SEQ ID NO: 3) or the natural dA (SEQ ID NO: 6) were synthesized.
compound,measurement,setting,value
"Nc1ncnc2c([C@H]3O[C@@H](CO)[C@H](O)[C@@H]3O)cnn12 [4-amino-8-(β-L-ribofuranosyl)pyrazolo[1,5-a]-1,3,5-triazine]",anti-HBV activity,HBV,no significant
same,anti-HIV activity,HIV,no significant
"CNc1nc(C)nc2c([C@H]3C[C@H](OP(=O)(O)O)[C@@H](COP(=O)(O)O)O3)cnn12 [compound 2, 8-(2′-deoxy-β-D-ribofuranosyl)-2-methyl-4-(N-methylamino)pyrazolo[1,5-a]-1,3,5-triazine-3′,5′-bisphosphate]",inhibition of ADP-induced human platelet aggregation,human platelet,strongly inhibits
same,inhibition of ADP-induced human platelet shape change,human platelet,strongly inhibits
"Nc1ncnc2c([C@@H]3O[C@H](CO)[C@@H](O)[C@H]3O)cnn12 [compound 10, 4-amino-8-(β-D-ribofuranosyl)pyrazolo[1,5-a]-1,3,5-triazine]",activity compared with formycin,mouse leukemia cells; all systems tested,more active than formycin
same,inhibitory activity against various mouse leukemia cells,mouse leukemia cells,moderate inhibitory activity
"SEQ ID NO: 1: 18-mer 5′d-(TAC CGC GTG CAA^PT CCC TCT)3′ with one dA^PT incorporation (DNA TACCGCGTGCATCCCTCT; DNA, [APT] at 12, backbone not given here)",melting temperature [Tm],[1],69.6 °C
same,duplex form from CD spectra,[2],still forms a B-form duplex
"SEQ ID NO: 2: 18-mer 5′d-(TA^PTC CGC GTG CAA^PT CCC TCT)3′ with two dA^PT incorporations (DNA TNCCGCGTGCANCCCTCT; listed as DNA, chemistry not fully specified)",melting temperature [Tm],[1],69.3 °C
same,duplex form from CD spectra,[2],still forms a B-form duplex
"SEQ ID NO: 3: 5′d-(TTC CTC TTT CTA^PT CCC TCT)3′, a sole dA^PT and no other purine (DNA TTCCTCTTTCTNCCCTCT; listed as DNA, chemistry not fully specified)",stability in acidic conditions (degradation),[3],not degraded
"SEQ ID NO: 5: unmodified 5′d-(TAC CGC GTG CAA CCC TCT)3′ with natural deoxyadenosine (DNA TACCGCGTGCAACCCTCT; DNA, backbone not given here)",melting temperature [Tm],[1],69 °C
"SEQ ID NO: 6: unmodified 5′d-(TTC CTC TTT CTA CCC TCT)3′ with natural dA (DNA TTCCTCTTTCTACCCTCT; DNA, backbone not given here)",stability in acidic conditions (degradation),[3],fully fragmented
